System: P. falciparum K1 (strain resistant to chloroquine and pyrimethamine), erythrocytic stages
Assay: Plasmodium falciparum in vitro assay, [3H] hypoxanthine incorporation
Format: cell-based
Settings: P. falciparum strain K1; [3H] hypoxanthine incorporation; read-out: IC50 (nM) on K1
In short: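 K1 strain parasites grown in human red cells, 2.5% haematocrit, 0.3% parasitaemia, 37 °C, 4% CO2/3% O2; compounds in seven serial doubling dilutions.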

Compound “(S)-N-[1-Benzyl-2-oxo-2-(4-phenyl-piperidin-1-yl)-ethyl]-N-(4-pyrimidin-5-yl-benzyl)-3-(6-trifluoromethyl-pyridin-3-yl)-acrylamide [Example 49]” has an IC50 of 43 nM.

Same assay, conditions: Plasmodium falciparum, K1, P. falciparum strain K1; [3H] hypoxanthine incorporation; read-out: IC50 (nM) on K1

Going from `Cc1ccc(C=CC(=O)N(Cc2ccc(-c3ccncc3)cc2)[C@@H](Cc2ccccc2)C(=O)N2CCC(N(C)C)CC2)nc1` [Example 28, (S)-N-[1-Benzyl-2-(4-dimethylamino-piperidin-1-yl)-2-oxo-ethyl]-3-(5-methyl-pyridin-2-yl)-N-(4-pyridin-4-yl-benzyl)-acrylamide] to `COc1ccc(C=CC(=O)N(Cc2ccc(-c3ccncc3)cc2)[C@@H](Cc2ccccc2)C(=O)N2CCC(N(C)C)CC2)cn1` [Example 29, (S)-N-[1-Benzyl-2-(4-dimethylamino-piperidin-1-yl)-2-oxo-ethyl]-3-(6-methoxy-pyridin-3-yl)-N-(4-pyridin-4-yl-benzyl)-acrylamide], the IC50 falls from 81 nM to 34 nM (2.4-fold).

`COc1ccc(C=CC(=O)N(Cc2ccc(N3CCOCC3)cc2)[C@@H](Cc2ccccc2)C(=O)N2CCC(N(C)C)CC2)cn1` [Example 5, (S)-N-[1-Benzyl-2-(4-dimethylamino-piperidin-1-yl)-2-oxo-ethyl]-3-(6-methoxy-pyridin-3-yl)-N-(4-morpholin-4-yl-benzyl)-acrylamide] and `COc1ccc(C=CC(=O)N(Cc2ccc(N3CCN(C(C)=O)CC3)cc2)[C@@H](Cc2ccccc2)C(=O)N2CCC(N(C)C)CC2)cn1` [Example 34, (S)-N-[4-(4-Acetyl-piperazin-1-yl)-benzyl]-N-[1-benzyl-2-(4-dimethylamino-piperidin-1-yl)-2-oxo-ethyl]-3-(6-methoxy-pyridin-3-yl)-acrylamide] are within 1.5-fold of each other in IC50: 319 nM for the first, 433 nM for the second.

Compared with `COc1ccc(CN(C)CCN(C)C(=O)[C@H](Cc2ccccc2)N(Cc2ccc(-c3ccccn3)cc2)C(=O)C=Cc2ccc(C(F)(F)F)cc2)cn1` [Example 229, (S)-N-[1-({2-[(6-Methoxy-pyridin-3-ylmethyl)-methyl-amino]-ethyl}-methyl-carbamoyl)-2-phenyl-ethyl]-N-(4-pyridin-2-yl-benzyl)-3-(4-trifluoromethyl-phenyl)-acrylamide], `CN(CCN(C)C(=O)[C@H](Cc1ccccc1)N(Cc1ccc(-c2ccccn2)cc1)C(=O)C=Cc1ccc(C(F)(F)F)cc1)Cc1cccnc1` [Example 231, (S)-N-(1-{Methyl-[2-(methyl-pyridin-3-ylmethyl-amino)-ethyl]-carbamoyl}-2-phenyl-ethyl)-N-(4-pyridin-2-yl-benzyl)-3-(4-trifluoromethyl-phenyl)-acrylamide] is 3.3-fold higher in IC50: 9 nM for the first, 30 nM for the second. The first is the more potent here.

First: COCCN(C)C(=O)[C@H](Cc1ccccc1)N(Cc1ccc(-c2ccccn2)cc1)C(=O)C=Cc1sc(C)nc1C [Example 77, (S)-3-(2,4-Dimethyl-thiazol-5-yl)-N-{1-[(2-methoxy-ethyl)-methyl-carbamoyl]-2-phenyl-ethyl}-N-(4-pyridin-2-yl-benzyl)-acrylamide]
Second: COCCN(C)C(=O)[C@H](Cc1ccccc1)N(Cc1ccc(-c2ccccn2)cc1)C(=O)C=Cc1cnc(C)nc1 [Example 83, (S)-N-{1-[(2-Methoxy-ethyl)-methyl-carbamoyl]-2-phenyl-ethyl}-3-(2-methyl-pyrimidin-5-yl)-N-(4-pyridin-2-yl-benzyl)-acrylamide]
The IC50 of the first is 9.1-fold lower: 23 nM for the first, 209 nM for the second. The first is the more potent here.

Going from `O=C([C@H](Cc1ccccc1)N(Cc1ccc(-c2cccnc2)cc1)C(=O)C=Cc1ccc(C(F)(F)F)nc1)N1CCC(Cc2ccccc2)CC1` [Example 47, (S)-N-[1-Benzyl-2-(4-benzyl-piperidin-1-yl)-2-oxo-ethyl]-N-(4-pyridin-3-yl-benzyl)-3-(6-trifluoromethyl-pyridin-3-yl)-acrylamide] to `CN(C)[C@@H]1CCN(C(=O)[C@H](Cc2ccccc2)N(Cc2ccc(-c3ccccn3)cc2)C(=O)C=Cc2ccc(C(F)(F)F)nc2)C1` [Example 55, N-[(S)-1-Benzyl-2-((R)-3-dimethylamino-pyrrolidin-1-yl)-2-oxo-ethyl]-N-(4-pyridin-2-yl-benzyl)-3-(6-trifluoromethyl-pyridin-3-yl)-acrylamide], the IC50 rises from 1 nM to 65 nM (65-fold). The first is the more potent here.

`Cc1ccccc1CN(C)CCN(C)C(=O)[C@H](Cc1ccccc1)N(Cc1ccc(-c2ccccn2)cc1)C(=O)C=Cc1ccc(C(F)(F)F)cc1` [Example 233, (S)-N-[1-(Methyl-{2-[methyl-(2-methyl-benzyl)-amino]-ethyl}-carbamoyl)-2-phenyl-ethyl]-N-(4-pyridin-2-yl-benzyl)-3-(4-trifluoromethyl-phenyl)-acrylamide] and `CC(=O)N1CCN(c2ccc(CN(C(=O)C=Cc3ccc(C(F)(F)F)cc3)[C@@H](Cc3ccccc3)C(=O)N(C)CCN(C)Cc3ccc(C)c(F)c3F)cc2)CC1` [Example 251, (S)-N-[4-(4-Acetyl-piperazin-1-yl)-benzyl]-N-[1-({2-[(2,3-difluoro-4-methyl-benzyl)-methyl-amino]-ethyl}-methyl-carbamoyl)-2-phenyl-ethyl]-3-(4-trifluoromethyl-phenyl)-acrylamide] are the same in IC50: 53 nM for the first, 53 nM for the second.

`COc1cc(CN(C)CCN(C)C(=O)[C@H](Cc2ccccc2)N(Cc2ccc(N3CCOCC3)cc2)C(=O)C=Cc2ccc(C(F)(F)F)cc2)cc(OC)c1` [Example 235, (S)-N-[1-({2-[(3,5-Dimethoxy-benzyl)-methyl-amino]-ethyl}-methyl-carbamoyl)-2-phenyl-ethyl]-N-(4-morpholin-4-yl-benzyl)-3-(4-trifluoromethyl-phenyl)-acrylamide] and `CN(CCN(C)C(=O)[C@H](Cc1ccccc1)N(Cc1ccc(N2CCOCC2)cc1)C(=O)C=Cc1ccc(C(F)(F)F)cc1)Cc1ccc2c(c1)OCO2` [Example 266, (S)-N-(1-{[2-(Benzo[1,3]dioxol-5-ylmethyl-methyl-amino)-ethyl]-methyl-carbamoyl}-2-phenyl-ethyl)-N-(4-morpholin-4-yl-benzyl)-3-(4-trifluoromethyl-phenyl)-acrylamide] are the same in IC50: 58 nM for the first, 58 nM for the second.

`CN(C)C1CCN(C(=O)[C@H](Cc2ccccc2)N(Cc2ccc(-c3ccccn3)cc2)C(=O)C=Cc2ccc(Cl)nc2)CC1` [Example 14, (S)-N-[1-Benzyl-2-(4-dimethylamino-piperidin-1-yl)-2-oxo-ethyl]-3-(6-chloro-pyridin-3-yl)-N-(4-pyridin-2-yl-benzyl)-acrylamide] and `COc1ncc(C=CC(=O)N(Cc2ccc(-c3ccncc3)cc2)[C@@H](Cc2ccccc2)C(=O)N2CCC(N(C)C)CC2)cn1` [Example 32, (S)-N-[1-Benzyl-2-(4-dimethylamino-piperidin-1-yl)-2-oxo-ethyl]-3-(2-methoxy-pyrimidin-5-yl)-N-(4-pyridin-4-yl-benzyl)-acrylamide] are within 1.5-fold of each other in IC50: 226 nM for the first, 298 nM for the second.

Going from `CC(=O)N1CCN(c2ccc(CN(C(=O)C=Cc3ccc(C(F)(F)F)nc3)[C@@H](Cc3ccccc3)C(=O)N(C)CCOCc3ccccn3)cc2)CC1` [Example 215, (S)-N-[4-(4-Acetyl-piperazin-1-yl)-benzyl]-N-(1-{methyl-[2-(pyridin-2-ylmethoxy)-ethyl]-carbamoyl}-2-phenyl-ethyl)-3-(6-trifluoromethyl-pyridin-3-yl)-acrylamide] to `CCOCCN(C)C(=O)[C@H](Cc1ccccc1)N(Cc1ccc(N2CCN(C(C)=O)CC2)cc1)C(=O)C=Cc1ccc(C(F)(F)F)cc1` [Example 193, (S)-N-[4-(4-Acetyl-piperazin-1-yl)-benzyl]-N-{1-[(2-ethoxy-ethyl)-methyl-carbamoyl]-2-phenyl-ethyl}-3-(4-trifluoromethyl-phenyl)-acrylamide], the IC50 falls from 86 nM to 20 nM (4.3-fold).

Compared with `CN(C)C1CCN(C(=O)[C@H](Cc2ccccc2)N(Cc2ccc(N3CCOCC3)cc2)C(=O)C=Cc2ccc(C(F)(F)F)cn2)CC1` [Example 4, (S)-N-[1-Benzyl-2-(4-dimethylamino-piperidin-1-yl)-2-oxo-ethyl]-N-(4-morpholin-4-yl-benzyl)-3-(5-trifluoromethyl-pyridin-2-yl)-acrylamide], `Cc1ccc(C=CC(=O)N(Cc2ccc(N3CCOCC3)nc2)[C@@H](Cc2ccccc2)C(=O)N2CCOCC2)cc1` [Example 147, (S)-N-(1-Benzyl-2-morpholin-4-yl-2-oxo-ethyl)-N-(6-morpholin-4-yl-pyridin-3-ylmethyl)-3-p-tolyl-acrylamide] is 4.2-fold lower in IC50: 323 nM for the first, 77 nM for the second.

Compared with `COCCN(C)C(=O)[C@H](Cc1ccccc1)N(Cc1ccc(-c2cncnc2)cc1)C(=O)C=Cc1ccc(OC)nn1` [Example 126, (S)-N-{1-[(2-Methoxy-ethyl)-methyl-carbamoyl]-2-phenyl-ethyl}-3-(6-methoxy-pyridazin-3-yl)-N-(4-pyrimidin-5-yl-benzyl)-acrylamide], `COCCN(C)C(=O)[C@H](Cc1ccccc1)N(Cc1ccccc1)C(=O)C=Cc1ccc(C)cc1` [Example 160, (S)-N-Benzyl-N-{1-[(2-methoxy-ethyl)-methyl-carbamoyl]-2-phenyl-ethyl}-3-p-tolyl-acrylamide] is 1.7-fold lower in IC50: 160 nM for the first, 93 nM for the second.

Compared with `C[C@@H]1CC[C@H]2[C@@H](C)C(=O)O[C@@H]3O[C@@]4(C)CC[C@@H]1[C@]32OO4` [Artemisinin], `COCCN(C)C(=O)[C@H](Cc1ccccc1)N(Cc1ccc(N2CCN(C(C)=O)CC2)cc1)C(=O)C=Cc1ccc(C)nc1` [Example 112, (S)-N-[4-(4-Acetyl-piperazin-1-yl)-benzyl]-N-{1-[(2-methoxy-ethyl)-methyl-carbamoyl]-2-phenyl-ethyl}-3-(6-methyl-pyridin-3-yl)-acrylamide] is 51-fold higher in IC50: 3 nM for the first, 153 nM for the second.

`CN(CCOCc1cccc(OC(F)(F)F)c1)C(=O)[C@H](Cc1ccccc1)N(Cc1ccc(N2CCOCC2)cc1)C(=O)C=Cc1ccc(C(F)(F)F)cc1` [Example 198, (S)-N-(1-{Methyl-[2-(3-trifluoromethoxy-benzyloxy)-ethyl]-carbamoyl}-2-phenyl-ethyl)-N-(4-morpholin-4-yl-benzyl)-3-(4-trifluoromethyl-phenyl)-acrylamide] and `CC(=O)N1CCN(c2ccc(CN(C(=O)C=Cc3ccc(C(F)(F)F)cc3)[C@@H](Cc3ccccc3)C(=O)N(C)CCOCc3ccc(C(F)(F)F)o3)cc2)CC1` [Example 206, (S)-N-[4-(4-Acetyl-piperazin-1-yl)-benzyl]-N-(1-{methyl-[2-(5-trifluoromethyl-furan-2-ylmethoxy)-ethyl]-carbamoyl}-2-phenyl-ethyl)-3-(4-trifluoromethyl-phenyl)-acrylamide] are within 1.5-fold of each other in IC50: 65 nM for the first, 81 nM for the second.
